In brackets after ≈: the same amount, converted by molar mass. Like-named read-outs stand apart in the source and are kept apart here.
Experiments:
[1] = biological target: T1, IRAK4 (Homo sapiens, UniProt Q9NWZ3); assay: Deep proteomics / degradation time course in OCI-Ly10 (FIG. 8); assay type: cell-based; details: OCI-Ly10, between 16-24 h post treatment
T1 construct: endogenous in cells; host or cells: OCI-Ly10
T1 sequence (Q9NWZ3 1-460): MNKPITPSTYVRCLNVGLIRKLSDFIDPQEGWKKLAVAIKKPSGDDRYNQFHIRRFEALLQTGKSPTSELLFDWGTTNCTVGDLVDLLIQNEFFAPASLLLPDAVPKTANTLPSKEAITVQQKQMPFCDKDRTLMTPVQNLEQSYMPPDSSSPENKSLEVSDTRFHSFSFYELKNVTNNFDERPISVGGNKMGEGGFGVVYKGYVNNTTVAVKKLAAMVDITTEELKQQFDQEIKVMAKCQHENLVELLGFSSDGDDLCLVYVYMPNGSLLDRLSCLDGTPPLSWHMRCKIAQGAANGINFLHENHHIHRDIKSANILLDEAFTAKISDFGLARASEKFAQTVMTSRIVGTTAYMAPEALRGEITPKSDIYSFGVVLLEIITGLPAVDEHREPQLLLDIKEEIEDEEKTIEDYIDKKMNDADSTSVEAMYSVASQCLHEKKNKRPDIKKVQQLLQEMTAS
From the text: FIG. 8 depicts deep proteomics scatterplots showing degradation of IRAK4 and IMiD substrates in OCI-Ly10 using Compound A. Type 1 IFN signaling was activated in OCI-Ly10 MYD88^MT DLBCL.

[2] = Solubility in oral dosing vehicle; assay type: physicochemical; details: 10% HP-β-CD vehicle (oral dosing vehicle), aqueous with cosolvent or surfactant or cyclodextrin; 10% HP-β-CD in water at pH 3.5 (w/v), 25 C; read-out: measured solubility
Experimental: Formulation: 10% HP-β-CD in water at pH 3.5 (w/v) in water at pH 3.5 (w/v) • Prepare the 10% HP-β-CD vehicle on a (w/v) basis • Add compound with stirring. • Heat to ˜50 C for 10 minutes. Can also sonicate. • Adjust pH to 3.5. • Heat for another 10-20 minutes at ˜50 C. • Check and adjust the pH as needed. • Expect solution as the measured solubility was 10 mg/mL at 25 C.

[3] = 7.3 Pharmacokinetic characterization, single or repeated oral administration, cynomolgus monkeys; details: cynomolgus monkey, in vivo, PO dosing in NHP
From the text: 7.3 Pharmacokinetic Characterization of Compound A following Single or Repeated Oral Administrations to Male and Female Cynomolgus Monkeys
The objective of this study is to determine the pharmacokinetics of Compound A following single or repeated oral administrations of Compound A in male and female cynomolgus monkeys. The test article will be measured in plasma at selected time points for up to 14 days post dosing.
Formulation: 10% HP-β-CD in water at pH 3.5 (w/v) in water at pH 3.5 (w/v) • Prepare the 10% HP-β-CD vehicle on a (w/v) basis • Add compound with stirring. • Heat to ˜50 C for 10 minutes. […]
LC-MS/MS method development: • 1. A LC-MS/MS method for the quantitative determination of test compound in biological matrix will be developed under non-GLP compliance. • 2. […] N in 1 cassette LC-MS/MS method can be developed for samples coming from different studies as long as these studies belong to same sponsor and the interference among all cassette analytes will be evaluated during the method development. • 5. […] If such kind cassette assay is still requested by the study sponsor, interference between analytes will not be evaluated but the LC separation of those analytes by using a generic method will be tried. […] Biological sample in matrix other than plasma can be diluted with plasma first and then quantified against plasma calibration curve. […]

For `CC(C)(O)c1cc2nc([C@H]3CC[C@H](CN4CC5(CC(CCNc6cccc7c6C(=O)N(C6CCC(=O)NC6=O)C7=O)C5)C4)CC3)sc2cc1NC(=O)c1cccc(C(F)(F)F)n1` (stereo partly shown) [Compound A, N-(2-((1r,4r)-4-((6-(2-((2-(2,6-dioxopiperidin-3-yl)-1,3-dioxoisoindolin-4-yl)amino)ethyl)-2-azaspiro[3.3]heptan-2-yl)methyl)cyclohexyl)-5-(2-hydroxypropan-2-yl)benzo[d]thiazol-6-yl)-6-(trifluoromethyl)picolinamide], the “degradation of IRAK4 (time course)” value [1] was over 80%, the solubility [2] was 10000 µg/mL (≈ 11.5 mM) and the Target AUC0-168 exposure range ([3]; schedule D1, D4, read-out: Target exposure Range (Ly10-DHL2) AUC0-168) was 7 to 18 µM·h. The Target AUC0-168 exposure range ([3]; schedule D1, read-out: Target exposure Range (Ly10-DHL2) AUC0-168) was 18 to 54 µM·h.

From US11857535B2, “Methods of treating mutant lymphomas” (Kymera Therapeutics, Inc., priority 2020, dated 2024)
